Data set [1] is described as follows: effect of food on oral absorption. It counts as in vivo, human.
A further data set relates to healthy volunteers. Description: thorough QT study: RR interval and blood pressure (Table 19). It counts as in vivo, human.
The next data set has as its target T1, β1-AR (Homo sapiens, UniProt P08588).
T1 construct: expressed in transfected cells; membranes prepared from them
The experiment in a line: competition binding assay, membranes with recombinant β1-AR.

The test system of data set [2] is men and women with overactive bladder. Description: Phase 3 study vibegron 75 mg vs placebo and tolterodine, 12 weeks, OAB: efficacy (Tables 21-25). It counts as in vivo, human. The protocol: Enrollment of patients included individuals with OAB Wet (those with UUI, the involuntary loss of urine accompanied by urgency) and OAB Dry (those without UUI). A total of 1,518 patients were randomized across 215 study sites into one of three groups for a 12-week treatment period.
The study consisted of a Screening Period (1 to 5 weeks), a single-blind Run-in Period (2 weeks), a randomized double-blind Treatment Period (12 weeks), and a Follow-up Period (4 weeks).
Tolterodine ER 4 mg was the active control. […] Between the Baseline and Week 12 Visits, patients had study assessments at Week 4 and Week 8.
For the analysis of the co-primary endpoints (change from baseline in average number of daily micturitions at Week 12 and change from baseline in average number of daily urge urinary incontinence episodes at Week 12, and placebo adjustment of each), a mixed model for repeated measure (MMRM) with restricted maximum likelihood estimation was used. This model corrects for dropout and accounts for the fact that measurements taken on the same patient over time tend to be correlated by using all available information on patients within the same covariate set to derive an estimate of the treatment effect for a dropout-free population. The analysis model for each efficacy endpoint includes terms for treatment, visit, OAB Type (Wet vs Dry), Sex (Female vs Male), Region (US vs Rest of World), baseline score, and interaction of visit by treatment.
Primary inferences were drawn from treatment differences for the changes from baseline derived from the MMRM models at Week 12. As part of secondary objectives, the treatment differences for each post baseline visit were also derived using the same MMRM model.
An unstructured covariance matrix was used to model the correlation among repeated measurements. The Kenward-Roger adjustment was used with restricted (or residual) maximum likelihood (REML) to make statistical inference. If the unstructured covariance model fails to converge with the default Newton-Raphson algorithm, the Fisher scoring algorithm or other appropriate methods can be used to provide initial values of the covariance parameters. In the rare event that none of the above methods yield convergence, a structured covariance would be used to model the correlation among repeated measurements.
The change from baseline efficacy endpoints was analyzed using the same MMRM model described for co-primary endpoints.
Analysis of the efficacy endpoints of proportion of patients with at least 75% reduction in the average number of daily UUI episodes at Week 12 and proportion of patients with 50% reduction in the average number of daily urgency episodes at Week 12 was analyzed using the Cochran-Mantel-Haenszel risk difference estimate. Missing Week 12 data was analyzed using multiple imputation. The estimated difference in the proportion of responders and 95% confidence interval for the difference was calculated using the Cochran-Mantel-Haenszel risk difference estimate stratified by OAB Type (Wet vs Dry) and Sex (Female vs Male), with weights proposed by Greenland and Robins.
The same statistical methods that were used to analyze the co-primary and secondary efficacy endpoints were used for the exploratory analyses. Exploratory responder analyses were analyzed using the same Cochran-Mantel-Haenszel model as described above for secondary endpoints.

In the next data set the target is CYP3A4 (Homo sapiens, UniProt P08684). Description: in vitro CYP metabolism. In kind it is in vitro ADME.
Chain of CYP3A4 (P08684 whole entry): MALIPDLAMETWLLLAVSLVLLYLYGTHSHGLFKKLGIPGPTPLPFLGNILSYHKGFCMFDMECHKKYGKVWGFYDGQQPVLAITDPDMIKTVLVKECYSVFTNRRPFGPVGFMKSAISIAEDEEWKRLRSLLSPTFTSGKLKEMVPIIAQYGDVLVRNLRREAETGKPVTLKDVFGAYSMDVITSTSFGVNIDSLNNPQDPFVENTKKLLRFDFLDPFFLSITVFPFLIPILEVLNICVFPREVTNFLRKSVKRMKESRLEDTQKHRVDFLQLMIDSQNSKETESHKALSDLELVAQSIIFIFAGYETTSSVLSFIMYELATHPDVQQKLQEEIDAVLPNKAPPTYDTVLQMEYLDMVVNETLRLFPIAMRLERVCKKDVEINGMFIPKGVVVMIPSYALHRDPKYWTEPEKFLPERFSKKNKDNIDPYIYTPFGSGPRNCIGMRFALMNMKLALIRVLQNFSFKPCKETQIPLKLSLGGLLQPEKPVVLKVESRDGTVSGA
Data set [3] in a line: single rising oral dose Phase 1 pharmacokinetics. In kind it is in vivo, human. The protocol:
The steady state AUC geometric mean accumulation ratios were ˜2 in young male subjects and ˜2.8 in elderly subjects (male and female).
All subjects were healthy adults. […] Systemic exposures were greater than dose proportional up to 600 mg.
Although exposures were similar in middle-aged males when compared to young males, plasma concentrations were higher in elderly compared to middle-aged and young subjects. […] Furthermore, the steady state AUC geometric mean accumulation ratios were ˜2 in young males and ˜2.8 in the elderly.

Setting [4] is: 150 mg multiple doses, Day 14, middle-aged females.
Setting [5] is: single 50 mg, Japanese young males.
The mark [6] stands for this setting: single 50 mg, non-Japanese young males.

Some results are limits rather than exact numbers.

T1 sequence (P08588 whole entry): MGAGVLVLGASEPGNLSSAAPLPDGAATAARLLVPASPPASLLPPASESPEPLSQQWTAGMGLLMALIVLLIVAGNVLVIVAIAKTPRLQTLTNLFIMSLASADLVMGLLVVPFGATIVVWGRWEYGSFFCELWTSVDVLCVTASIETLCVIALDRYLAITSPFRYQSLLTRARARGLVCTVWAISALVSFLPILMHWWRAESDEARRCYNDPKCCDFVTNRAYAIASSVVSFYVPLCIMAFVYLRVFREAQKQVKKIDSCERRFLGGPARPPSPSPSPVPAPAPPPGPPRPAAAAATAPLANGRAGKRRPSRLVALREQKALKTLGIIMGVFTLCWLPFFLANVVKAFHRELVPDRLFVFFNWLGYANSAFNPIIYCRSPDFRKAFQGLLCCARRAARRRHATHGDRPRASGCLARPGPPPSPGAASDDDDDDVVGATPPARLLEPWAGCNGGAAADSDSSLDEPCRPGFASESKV

As to `O=C(Nc1ccc(C[C@@H]2CC[C@H]([C@H](O)c3ccccc3)N2)cc1)[C@@H]1CCc2nccc(=O)n21` [Vibegron, (6S)—N-[4-[[(2S,5R)-5-[(R)-hydroxy(phenyl)methyl]pyrrolidin-2-yl]methyl]phenyl]-4-oxo-7,8-dihydro-6H-pyrrolo[1,2-a]pyrimidine-6-carboxamide], the “mean Cmax with food compared to fasted state” value in data set [1] (150 mg multiple doses, Day 1) was found to be 59%. In addition, the “mean AUC0-24 with food compared to fasted state” value in data set [1] (150 mg multiple doses, Day 1, middle-aged and elderly females) was roughly 42%. In data set [1] (150 mg multiple doses, Day 14), the “mean AUC0-24 with food compared to fasted state” value is on record as roughly 20% and the “mean Cmax with food compared to fasted state” value came to 43%. Besides, in data set [1] (setting [4]), the “reduction in mean AUC0-24hr with food vs fasted” value is 20% and the “reduction in mean Cmax with food vs fasted” value is listed as 47%. Also, the Tmax in data set [1] (male, human, plasma, oral, single 50 mg, non-Japanese young males, read-out: delay in Tmax with high-fat meal) was roughly 1 h. In addition, in data set [1] (setting [5]), the “reduction in AUC0-inf with standard Japanese breakfast” value came out at 37% and the “reduction in Cmax with standard Japanese breakfast” value is listed as 52%. Moreover, in data set [1] (setting [6]), the “reduction in AUC0-inf with high-fat meal vs fasted” value was 46% and the “reduction in Cmax with high-fat meal vs fasted” value was found to be 67%. In the data set with healthy volunteers (single dose 200 mg), the “Maximum Mean Placebo Corrected Change from Baseline Diastolic BP (90% CI)” value worked out at 2.42 mmHg, the “Maximum Mean Placebo Corrected Change from Baseline RR interval (90% CI)” value was -84.36 ms and the “Maximum Mean Placebo Corrected Change from Baseline Systolic BP (90% CI)” value was 2.20 mmHg. Further, in the data set on healthy volunteers (single dose 400 mg), the “Maximum Mean Placebo Corrected Change from Baseline Diastolic BP (90% CI)” value is recorded as 3.99 mmHg, the “Maximum Mean Placebo Corrected Change from Baseline RR interval (90% CI)” value is -162.45 ms and the “Maximum Mean Placebo Corrected Change from Baseline Systolic BP (90% CI)” value is reported as 3.97 mmHg. On β1-AR, the “binding to β1-AR” value is “does not bind”. For the same molecule, the “total incontinence episodes vs baseline” value in data set [2] (75 mg QD, 12 weeks) is given as “reduced by half”. Besides, in data set [2] (Males with BPH, descriptive statistics), the “Micturitions: Week 12 CFB Mean” value is reported as −1.50. Also, in data set [2] (Week 12, key secondary endpoint, once-daily vibegron 75 mg or tolterodine), the “OAB-q Coping Score, Week 12 LS Mean Change from Baseline (Placebo-Adjusted)” value is 3.6. Also, the “predominant CYP responsible for in vitro metabolism” value at CYP3A4 is listed as “CYP3A4”. In data set [3] (single dose), the “exposure increase, young Japanese vs non-Japanese males” value is given as less than 2 fold. In addition, the “dose proportionality of mean Cmax and AUC” value in data set [3] (up to 400 mg) is “greater than dose-proportional”.
